{"source": "patent US11633393B2", "about": "“Tubulin binding compounds and therapeutic use thereof” (BeyondSpring Pharmaceuticals, Inc., priority 2017, dated 2023)", "test_system": "bovine brain tubulin", "assay": "Microtubule pelleting assay", "format": "biochemical", "conditions": "100 μM compound, microtubules 2 mg/mL, 30 min at 37° C.", "protocol": "A microtubule pelleting assay is used to test in vitro the direct effect of the tubulin binding compounds described herein such as the compounds listed in Tables 1, 2, and 3. […] Freshly polymerised/depolymerised bovine brain tubulin is supplemented with 34% Glycerol and 1 mM GTP and adjusted to a concentration of 4 mg/mL. Polymerization into microtubule is achieved by incubating the tubulin at 37° C. for 30 min.\nTo assess the effect of the compounds tested, a final concentration of 100 μM is added to the warm microtubules diluted at 2 mg/mL and after a 30 min incubation at 37° C., the reaction mixture is added on top of a glycerol cushion. After high speed centrifugation at 80,000 rpm for 15 min, the microtubule pellet fractions are separated from the supernatant fractions and analyzed by SDS-PAGE. In the presence of the 3 MDAs, the tubulin band is observed in the pellet fractions, which indicates the […] effect of these compounds. […] The test compounds generally show destabilizing effect on microtubules."}
{"smiles": "CC(=O)O[C@H]1C(=O)[C@@]2(C)[C@H]([C@H](OC(=O)c3ccccc3)[C@]3(O)C[C@H](OC(=O)[C@H](O)[C@@H](NC(=O)c4ccccc4)c4ccccc4)C(C)=C1C3(C)C)[C@]1(OC(C)=O)CO[C@@H]1C[C@@H]2O", "note": "[taxol]", "values": [{"measurement": "effect on microtubules (tubulin in pellet vs supernatant fractions, SDS-PAGE)", "value": "increases the amount of tubulin observed in the pellet fraction"}]}
